# Reference: US8809350B2, “Purine and pyrimidine CDK inhibitors and their use for the treatment of autoimmune diseases” (priority 2004, dated 2014)
# “Also recorded” adds a separate entry of the source. Where two headings read alike, the source gives them in different places.
# Legend:
# [1] = system: HCT116 cells; settings: cited from earlier work
# [2] = molecular target: CDK7/cyclin H (Homo sapiens, UniProt P50613); test: CDK 7 and 9 assay (CTD peptide substrate); format: biochemical; settings: in-house kinase assays; read-out: Average IC50 CDK7H
# Sequence of CDK7/cyclin H (P50613 whole entry): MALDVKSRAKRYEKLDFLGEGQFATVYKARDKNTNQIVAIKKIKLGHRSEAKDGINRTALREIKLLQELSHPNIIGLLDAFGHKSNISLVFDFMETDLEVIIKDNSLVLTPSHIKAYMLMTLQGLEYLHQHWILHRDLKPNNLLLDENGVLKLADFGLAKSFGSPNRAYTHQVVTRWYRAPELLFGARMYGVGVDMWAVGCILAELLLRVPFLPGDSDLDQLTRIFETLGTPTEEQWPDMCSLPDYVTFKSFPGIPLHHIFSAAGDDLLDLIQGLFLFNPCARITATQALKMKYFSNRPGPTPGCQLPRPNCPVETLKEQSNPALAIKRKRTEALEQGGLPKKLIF
# Sequence of CDK7/cyclin H (P51946 whole entry partner): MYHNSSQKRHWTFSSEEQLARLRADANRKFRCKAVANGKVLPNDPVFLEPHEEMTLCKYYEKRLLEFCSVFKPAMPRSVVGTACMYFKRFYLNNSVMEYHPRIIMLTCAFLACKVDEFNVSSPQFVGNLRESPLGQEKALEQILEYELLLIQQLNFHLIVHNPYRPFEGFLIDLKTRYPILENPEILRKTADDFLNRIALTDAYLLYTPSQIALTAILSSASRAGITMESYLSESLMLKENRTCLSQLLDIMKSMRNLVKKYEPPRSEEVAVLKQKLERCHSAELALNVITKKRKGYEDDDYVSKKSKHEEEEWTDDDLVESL
# Procedure: (§1) Kinase activity was investigated by measuring the incorporation of radioactive phosphate from ATP into appropriate polypeptide substrates. Recombinant protein kinases and kinase complexes were produced or obtained commercially. Assays were performed using 96-well plates and appropriate assay buffers (typically 25 mM β-glycerophosphate, 20 mM MOPS, 5 mM EGTA, 1 mM DTT, 1 mM […], pH 7.4), into which were added 2-4 μg of active enzyme with appropriate substrates. The reactions were initiated by addition of Mg/ATP mix (15 mM MgCl2+100 μM ATP with 30-50 kBq per well of [γ-^32P]-ATP) and mixtures incubated as required at 30° C. Reactions were stopped on ice, followed by filtration through p81 filterplates or GF/C filterplates (Whatman Polyfiltronics, Kent, UK). After washing 3 times with 75 mM aq orthophosphoric acid, plates were dried, scintillant added and incorporated radioactivity measured in a scintillation counter (TopCount, Packard Instruments, Pangbourne, Berks, UK). Compounds for kinase assay were made up as 10 mM stocks in DMSO and diluted into 10% DMSO in assay buffer.
# (§2) The reaction was stopped by placing the plate on ice for 2 min. Avidin (50 μg) was added to each well, and the plate was incubated at room temp for 30 min. The samples were transferred to a 96-well P81 filter plate, and washed (4×200 μL per well) with 75 mM phosphoric acid. Microscint 40 scintillation liquid (50 μL) was added to each well, and the amount of ^32P incorporation for each sample was measured using a Packard Topcount microplate scintillation counter.
# [3] = system: tumour cell panels; test: In-house 72 hour cytotoxicity assays on tumour cell panels; format: cell-based
# [4] = molecular target: CDK9/cyclin T1 (Homo sapiens, UniProt P50750); test: CDK 7 and 9 assay (CTD peptide substrate); format: biochemical; settings: in-house kinase assays; read-out: Average IC50 CDK9T1
# Sequence of CDK9/cyclin T1 (P50750 whole entry): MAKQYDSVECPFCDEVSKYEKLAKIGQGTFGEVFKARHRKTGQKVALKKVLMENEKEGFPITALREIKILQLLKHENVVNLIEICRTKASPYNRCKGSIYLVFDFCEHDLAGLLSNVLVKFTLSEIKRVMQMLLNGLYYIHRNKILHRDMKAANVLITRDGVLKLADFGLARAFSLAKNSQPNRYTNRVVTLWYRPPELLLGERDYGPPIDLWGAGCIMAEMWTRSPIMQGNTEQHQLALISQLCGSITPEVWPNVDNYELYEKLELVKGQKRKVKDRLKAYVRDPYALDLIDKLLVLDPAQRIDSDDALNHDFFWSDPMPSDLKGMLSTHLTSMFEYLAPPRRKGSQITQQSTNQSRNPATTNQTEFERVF
# Sequence of CDK9/cyclin T1 (O60563 whole entry partner): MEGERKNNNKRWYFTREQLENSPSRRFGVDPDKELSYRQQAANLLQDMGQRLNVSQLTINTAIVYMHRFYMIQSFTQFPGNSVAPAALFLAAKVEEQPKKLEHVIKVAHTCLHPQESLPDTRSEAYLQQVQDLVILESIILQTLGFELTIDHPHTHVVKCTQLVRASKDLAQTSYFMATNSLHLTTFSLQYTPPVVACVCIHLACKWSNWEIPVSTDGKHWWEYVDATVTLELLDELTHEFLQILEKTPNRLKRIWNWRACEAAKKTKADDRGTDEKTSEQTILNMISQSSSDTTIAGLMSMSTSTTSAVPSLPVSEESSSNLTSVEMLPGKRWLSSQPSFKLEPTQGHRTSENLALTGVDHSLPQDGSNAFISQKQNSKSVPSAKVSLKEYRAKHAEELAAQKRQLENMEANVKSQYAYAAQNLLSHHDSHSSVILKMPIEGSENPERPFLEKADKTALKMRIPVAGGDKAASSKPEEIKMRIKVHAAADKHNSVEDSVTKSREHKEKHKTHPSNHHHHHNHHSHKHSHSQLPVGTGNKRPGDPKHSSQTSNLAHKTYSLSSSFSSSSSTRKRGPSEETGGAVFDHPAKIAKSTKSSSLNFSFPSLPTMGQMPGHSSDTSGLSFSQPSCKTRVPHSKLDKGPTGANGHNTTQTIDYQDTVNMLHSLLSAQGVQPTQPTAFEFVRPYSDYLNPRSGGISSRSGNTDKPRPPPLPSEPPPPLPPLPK
# Procedure: as §1, §2
# [5] = molecular target: AurB (Homo sapiens, UniProt Q96GD4); test: In-house kinase assay (32P incorporation); format: biochemical; settings: in-house kinase assays
# Sequence of AurB (Q96GD4 whole entry): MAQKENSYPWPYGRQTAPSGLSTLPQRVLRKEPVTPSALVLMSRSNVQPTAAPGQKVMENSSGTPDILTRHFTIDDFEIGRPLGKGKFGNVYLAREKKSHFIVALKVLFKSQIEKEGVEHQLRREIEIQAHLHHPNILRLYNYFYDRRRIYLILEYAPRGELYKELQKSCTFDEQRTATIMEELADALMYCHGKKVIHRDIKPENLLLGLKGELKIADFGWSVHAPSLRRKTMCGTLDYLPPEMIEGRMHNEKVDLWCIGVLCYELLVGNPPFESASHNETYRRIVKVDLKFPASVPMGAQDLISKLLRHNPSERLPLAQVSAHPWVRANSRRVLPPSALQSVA
# Procedure: as §1
# [6] = molecular target: CDK1B (Homo sapiens, UniProt P06493); test: In-house kinase assay (32P incorporation); format: biochemical; settings: in-house kinase assays
# Sequence of CDK1B (P06493 whole entry): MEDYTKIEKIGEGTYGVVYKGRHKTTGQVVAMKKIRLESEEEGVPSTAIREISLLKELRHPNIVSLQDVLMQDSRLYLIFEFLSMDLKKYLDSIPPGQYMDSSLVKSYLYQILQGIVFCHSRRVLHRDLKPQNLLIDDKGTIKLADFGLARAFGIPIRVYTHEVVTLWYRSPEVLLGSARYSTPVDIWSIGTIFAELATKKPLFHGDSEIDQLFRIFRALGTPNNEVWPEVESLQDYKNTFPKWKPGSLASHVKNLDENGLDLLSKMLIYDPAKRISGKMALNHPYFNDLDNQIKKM
# Sequence of CDK1B (P14635 whole entry partner): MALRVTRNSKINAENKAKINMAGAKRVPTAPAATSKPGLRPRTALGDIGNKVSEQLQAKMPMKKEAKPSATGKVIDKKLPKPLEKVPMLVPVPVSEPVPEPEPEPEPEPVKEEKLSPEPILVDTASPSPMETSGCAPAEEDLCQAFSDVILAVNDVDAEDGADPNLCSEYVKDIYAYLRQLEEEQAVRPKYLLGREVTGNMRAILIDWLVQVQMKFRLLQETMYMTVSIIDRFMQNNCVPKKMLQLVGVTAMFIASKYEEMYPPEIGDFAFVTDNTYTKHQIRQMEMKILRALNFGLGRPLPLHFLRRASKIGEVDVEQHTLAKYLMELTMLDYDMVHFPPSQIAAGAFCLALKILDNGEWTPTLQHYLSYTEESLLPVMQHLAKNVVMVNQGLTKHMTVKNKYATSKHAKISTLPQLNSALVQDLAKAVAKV
# Procedure: as §1
# [7] = molecular target: T1, AurA (Homo sapiens, UniProt O14965); test: In-house kinase assay (32P incorporation); format: biochemical; settings: in-house kinase assays
# T1 sequence (O14965 1-403): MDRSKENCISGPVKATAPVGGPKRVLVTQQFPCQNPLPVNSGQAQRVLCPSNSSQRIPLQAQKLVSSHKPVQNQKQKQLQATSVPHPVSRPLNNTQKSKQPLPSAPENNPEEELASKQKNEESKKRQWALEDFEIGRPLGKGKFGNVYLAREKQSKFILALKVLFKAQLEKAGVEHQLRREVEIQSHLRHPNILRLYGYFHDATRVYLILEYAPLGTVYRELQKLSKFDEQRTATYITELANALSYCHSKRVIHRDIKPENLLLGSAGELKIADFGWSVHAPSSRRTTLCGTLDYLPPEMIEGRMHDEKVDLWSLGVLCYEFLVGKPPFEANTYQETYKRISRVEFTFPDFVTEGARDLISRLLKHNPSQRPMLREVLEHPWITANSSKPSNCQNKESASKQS
# Procedure: as §1
# [8] = molecular target: CDK4D1 (Homo sapiens, UniProt P11802); test: In-house kinase assay (32P incorporation); format: biochemical; settings: in-house kinase assays
# Sequence of CDK4D1 (P11802 whole entry): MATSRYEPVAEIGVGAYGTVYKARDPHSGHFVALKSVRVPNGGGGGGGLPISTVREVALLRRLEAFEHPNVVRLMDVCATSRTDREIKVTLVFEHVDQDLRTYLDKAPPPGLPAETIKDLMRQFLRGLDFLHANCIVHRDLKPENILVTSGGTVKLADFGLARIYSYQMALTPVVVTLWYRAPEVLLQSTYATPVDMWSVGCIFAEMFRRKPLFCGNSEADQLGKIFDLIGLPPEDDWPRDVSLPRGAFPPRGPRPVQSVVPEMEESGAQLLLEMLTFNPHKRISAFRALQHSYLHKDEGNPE
# Sequence of CDK4D1 (P24385 whole entry partner): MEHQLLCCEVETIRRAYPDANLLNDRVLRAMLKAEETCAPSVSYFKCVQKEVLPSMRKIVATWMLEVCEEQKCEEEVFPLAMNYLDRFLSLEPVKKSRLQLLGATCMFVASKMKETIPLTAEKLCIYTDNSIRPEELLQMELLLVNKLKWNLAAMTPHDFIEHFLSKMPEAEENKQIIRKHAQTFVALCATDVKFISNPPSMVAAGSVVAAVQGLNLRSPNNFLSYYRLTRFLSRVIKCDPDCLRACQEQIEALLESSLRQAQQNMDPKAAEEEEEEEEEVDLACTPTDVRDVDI
# Procedure: as §1
# [9] = molecular target: CDK2A (Homo sapiens, UniProt P24941); test: In-house kinase assay (32P incorporation); format: biochemical; settings: in-house kinase assays
# Procedure: as §1
# [10] = molecular target: CDK2E (Homo sapiens, UniProt P24941); test: In-house kinase assay (32P incorporation); format: biochemical; settings: in-house kinase assays
# Procedure: as §1
# [11] = molecular target: CDK6D3 (Homo sapiens, UniProt Q00534); test: In-house kinase assay (32P incorporation); format: biochemical; settings: in-house kinase assays
# Sequence of CDK6D3 (Q00534 whole entry): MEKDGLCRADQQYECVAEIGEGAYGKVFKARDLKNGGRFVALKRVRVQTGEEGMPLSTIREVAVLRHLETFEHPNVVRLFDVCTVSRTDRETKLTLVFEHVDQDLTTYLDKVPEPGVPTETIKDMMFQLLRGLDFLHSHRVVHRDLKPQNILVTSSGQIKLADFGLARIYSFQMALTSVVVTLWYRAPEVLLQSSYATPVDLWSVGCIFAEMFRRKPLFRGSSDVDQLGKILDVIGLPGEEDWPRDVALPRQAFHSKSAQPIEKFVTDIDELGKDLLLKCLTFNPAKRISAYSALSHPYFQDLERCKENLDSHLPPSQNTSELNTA
# Sequence of CDK6D3 (P30281 whole entry partner): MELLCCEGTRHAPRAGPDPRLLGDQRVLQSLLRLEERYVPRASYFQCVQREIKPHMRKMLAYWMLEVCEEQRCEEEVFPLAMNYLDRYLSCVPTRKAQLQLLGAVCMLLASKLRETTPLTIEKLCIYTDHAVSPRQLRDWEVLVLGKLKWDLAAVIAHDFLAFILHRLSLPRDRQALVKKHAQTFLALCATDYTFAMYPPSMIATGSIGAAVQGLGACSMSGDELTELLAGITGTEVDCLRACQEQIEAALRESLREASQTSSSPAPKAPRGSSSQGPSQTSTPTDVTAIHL
# Procedure: as §1
# [12] = system: stimulated PBMCs; test: T cell proliferation assay (BrdU ELISA in stimulated PBMCs); format: cell-based
# Procedure: PBMCs were seeded in 96 well plates at 1×10^5 cells/well, in 50 μL per well culture medium. […] All stimulants and compounds were made up to 4× final concentration in tissue culture medium and 25 μL of each drug and stimulant was then added to wells, for a final volume of 100 μL/well. For unstimulated controls, 25 μL tissue culture medium was added to wells instead of stimulant and for untreated cells, 25 μL/well tissue culture medium containing equal volume DMSO (0.1% final) was added. Three adjacent wells were treated for each stimulation/treatment condition and the mean value calculated for analysis.
# In addition, PBMCs were stimulated with ConA (Concanavalin A, Sigma C5275) at concentrations ranging from 0.5 μg/mL to 100 μg/mL to identify its stimulatory effect and optimal concentration.
# Cells were labelled with BrdU for two hours prior to harvesting. Plates were then centrifuged for 10 minutes at 300 g (RT), supernatant removed from wells by pipetting and cells dried for 1 hour at 60° C. FixDenat solution was added to plates (100 μL/well) and incubated for 30 minutes, then flicked to remove and anti-BrdU-POD solution added to plates (100 μL/well) and incubated for 90 minutes.
# [13] = rounded IC50 value used for ease of calculation in PBMC assays, read-out: IC50 Used
# [14] = Example 3, PHA stimulated PBMCs, compounds at IC50 to 4×IC50, 48 hours after stimulation
# [15] = Example 3, PMA/I stimulated PBMCs, all concentrations
# [16] = Example 4, PHA or ConA stimulated PBMCs, 0.25×IC50 to 4×IC50, 48 and 72 hours
IC50 [2] [µM],IC50 [4] [µM],IC50 [5] [µM],IC50 [6] [µM],IC50 [7] [µM],IC50 [8] [µM],IC50 [9] [µM],IC50 [10] [µM],IC50 [11] [µM],Compound,"IC50 ([1]; published for HCT116 cells, Raynaud et al. 2005, no in-house data, read-out: IC50 Average) [µM]","IC50 ([1]; rounded from published HCT116 IC50, used in PBMC assays, read-out: IC50 Used) [µM]","IC50 ([3]; 72 h, read-out: IC50 Average) [µM]","IC50 [3, 13] [µM]","Concentration reaching complete inhibition of proliferation activity ([12]; Example 4, PHA or ConA stimulated PBMCs) [×IC50]","BrdU incorporation [12, 14]","BrdU incorporation [12, 15]","BrdU incorporation [12, 16]"
> 20,–,–,–,–,–,–,–,–,Cn1cnc2c(NCc3ccccc3)nc(NCCO)nc21 [Compound 3],56,50,–,–,–,–,–,–
27,2.71,0.023,15.9,0.051,2.75,1.24,0.931,1.94,CC[C@@H](Nc1nc(NCc2cccnc2)c2ncn(C(C)C)c2n1)C(C)(C)O [Compound 5],–,–,1.43,1.5,–,–,–,–
0.983,0.195,> 10,4.95,> 10,7.63,0.223,0.071,6.27,Cc1c(-c2ccnc(Nc3ccc(N4CCNCC4)cc3)n2)sc(=O)n1C [Compound 7],–,–,5.31,5,0.25,–,–,–

# Further lines, the compound ahead of its results:
Compound,IC50 [2] [µM],IC50 [4] [µM],IC50 [5] [µM],IC50 [6] [µM],IC50 [7] [µM],IC50 [8] [µM],IC50 [9] [µM],IC50 [10] [µM],IC50 [11] [µM],"IC50 ([1]; published for HCT116 cells, Raynaud et al. 2005, no in-house data, read-out: IC50 Average) [µM]","IC50 ([1]; rounded from published HCT116 IC50, used in PBMC assays, read-out: IC50 Used) [µM]","IC50 ([3]; 72 h, read-out: IC50 Average) [µM]","IC50 [3, 13] [µM]","Concentration reaching complete inhibition of proliferation activity ([12]; Example 4, PHA or ConA stimulated PBMCs) [×IC50]","BrdU incorporation [12, 14]","BrdU incorporation [12, 15]","BrdU incorporation [12, 16]"
CCNc1nc(C)c(-c2ccnc(Nc3ccc(CNC(C)=O)cc3)n2)s1 [Compound 9],0.147,0.097,0.021,2,0.094,0.118,1.67,0.204,0.11,–,–,0.25,0.25,–,clearly concentration dependent,higher than in PHA stimulated cells,concentration dependency was clearly seen; also recorded: needed at higher concentrations than the other compounds
CCNc1nc(C)c(-c2ccnc(Nc3ccc(S(C)(=O)=O)cc3)n2)s1 [Compound 10],0.455,0.081,> 100,1.49,> 10,5.1,0.115,0.013,6.4,–,–,0.753,1,–,clearly concentration dependent,higher than in PHA stimulated cells,concentration dependency was clearly seen; also recorded: needed at higher concentrations than the other compounds
